Data taken from US7056947B2, “Aza-peptide epoxides” (Georgia Tech Research Corp., priority 2002, dated 2006).

What was measured:
caspase-3 = target: T1, caspase-3 (Homo sapiens, UniProt P42574); assay: Caspase-3 progress curve assay; format: biochemical; settings: substrate Z-DEVD-AFC; NI = no inhibition
T1 construct: made in house; host or cells: E. coli
T1 sequence (P42574 29-175 limits assumed): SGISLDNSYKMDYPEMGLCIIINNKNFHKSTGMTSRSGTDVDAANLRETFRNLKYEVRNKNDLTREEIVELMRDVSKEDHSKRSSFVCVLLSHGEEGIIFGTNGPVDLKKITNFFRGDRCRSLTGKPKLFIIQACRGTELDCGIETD
T1 sequence (P42574 176-277 limits assumed): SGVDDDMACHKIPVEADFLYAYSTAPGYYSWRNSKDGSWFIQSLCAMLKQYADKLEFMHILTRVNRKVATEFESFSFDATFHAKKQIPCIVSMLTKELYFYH
Protocol: Caspase-3, -6, and -8. Caspase-3, -6 and -8 were expressed in E. coli and purified according to methods previously described by Stennicke and Salvesen. Assays using the fluorogenic substrate Z-DEVD-AFC (λex=400 nm, λem=505 nm) were carried out on a Molecular Devices fMax fluorescence microplate reader. Inhibition rates and equilibria were determined by the progress curve method. The standard 100 μL reaction was started by adding enzyme to a mixture of substrate (final concentration of Z-DEVD-AFC 100 μM) and various amounts of inhibitor in buffer (50 mM Hepes, 100 mM NaCl, 0.1% (w/v) CHAPS, sucrose 10% (w/v), and 10 mM DTT, at pH 7.4). The caspases were pre-activated for 10 min at 37° C. in the presence of 10 mM DTT.

caspase-1 = target: T2, caspase-1 (Homo sapiens, UniProt P29466, D381E); assay: Caspase-1 progress curve assay; format: biochemical; settings: D381E variant, substrate Ac-YVAD-AMC, 30° C.
T2 construct: His tag (N); made in house; host or cells: E. coli
T2 sequence (P29466 120-297 limits assumed): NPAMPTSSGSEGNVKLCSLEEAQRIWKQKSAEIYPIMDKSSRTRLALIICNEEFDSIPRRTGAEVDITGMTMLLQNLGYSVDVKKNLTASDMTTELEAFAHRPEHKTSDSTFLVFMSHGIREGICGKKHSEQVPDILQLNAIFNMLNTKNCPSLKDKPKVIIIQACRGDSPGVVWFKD
T2 sequence (P29466 317-404 D381E limits assumed): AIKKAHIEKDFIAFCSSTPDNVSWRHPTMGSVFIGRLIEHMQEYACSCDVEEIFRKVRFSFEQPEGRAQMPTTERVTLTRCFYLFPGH
Text: Caspase-1. The preparation of the autolytically stable caspase-1 variant used in these studies has been described previously. Briefly, the variant contains a mutation (D381E) which renders it resistant to autolytic inactivation, but has no detectable affect on enzyme activity as compared to the naturally occurring enzyme. The enzyme variant was expressed in E. coli, purified first by immobilized metal chromatography via the N-terminal N-His tag, treated with excess oxidized glutathione to stabilize the reactive thiolate, and then re-purified by size-exclusion chromatography.
Inhibition data was measured using the progress curve assay method. Serial dilutions of each compound were prepared using an initial 8-fold dilution of a DMSO stock into HGE (100 mM HEPES,20% glycerol v/v, 0.5 mM EDTA), followed by seven serial two-fold dilutions into HGE and 12.5% DMSO, thus maintaining constant DMSO through the dilution series. Ten μL of diluted stocks or of vehicle (HGE and 12.5% DMSO) were placed in triplicate onto a 96-well microtiter plate, allowing several compounds to be tested on each plate. The plate was covered to minimize evaporation, and the plate was pre-warmed to 30° C. for 20 minutes. Enzyme was diluted into 10.0 mL of assay buffer (HGE, 5 mM DTT, plus 15 μM Ac-YVAD-AMC, 2 nM approximate final enzyme concentration), and this activated reaction mixture was added to the plate at 90 μL/well. Progress of substrate hydrolysis was monitored for 900 s in a LabSystems (Needham, Mass.) Fluoroskan Ascent fluorescent plate-reader using 385 and 460 nm excitation and emission filters, respectively, and a photomultiplier gain setting of 10. Triplicate curves were averaged and fit by nonlinear regression to the equation for irreversible inactivation shown below.
[formula] where F0 was routinely fixed to zero, since fluorescence values were always adjusted to an origin of 0. The second order rate constant kon (M^−1s^−1) was obtained from the slopes by linear regression, and errors represent the standard deviation of the regression slope.

| Compound | k2 caspase-3 (caspase-3) [M⁻¹ s⁻¹] | k2 caspase-1 (caspase-1) [M⁻¹ s⁻¹] |
| --- | --- | --- |
| CC(C)[C@H](NC(=O)CCc1ccccc1)C(=O)N[C@@H](C)C(=O)NN(CC(=O)O)C(=O)[C@H]1O[C@@H]1C(=O)NCCc1ccccc1 [23h (S,S), (2S,3S)-2-(2-Phenethylcarbamoyl)-3-(N^2-(3-phenylpropanoylvalylalanyl)-N^1-carboxymethylhydrazinocarbonyl)oxirane] | 1110 ± 100 | 17150 ± 2254 |
| CC(C)[C@H](NC(=O)CCc1ccccc1)C(=O)N[C@@H](C)C(=O)NN(CC(=O)O)C(=O)[C@H]1O[C@@H]1C(=O)NCC(O)c1ccccc1 (stereo partly drawn) [23i (S,S), (2S,3S)-2-(2-Hydroxy-2-phenylethylcarbamoyl)-3-(N^2-(3-phenylpropanoylvalylalanyl)-N^1-carboxymethylhydrazinocarbonyl)oxirane] | 510 ± 100 | 12260 ± 19 |
| CC(NC(=O)[C@H]1O[C@@H]1C(=O)N(CC(=O)O)NC(=O)[C@H](C)NC(=O)[C@@H](NC(=O)CCc1ccccc1)C(C)C)C(=O)NCc1ccccc1 (stereo partly drawn) [23j (S,S), (2S,3S)-2-(1-Benzylcarbamoylethylcarbamoyl)-3-(N^2-(3-phenylpropanoylvalylalanyl)-N^1-carboxymethylhydrazinocarbonyl)oxirane] | 260 ± 25 | 13400 |
| CC(C)[C@H](NC(=O)CCc1ccccc1)C(=O)N[C@@H](C)C(=O)NN(CC(=O)O)C(=O)[C@H]1O[C@@H]1C(=O)OCCc1ccccc1 [23e, (2S,3S)-3-(N^2-(3-Phenylpropanoylvalylalanyl)-N^1-carboxymethylhydrazinocarbonyl)oxirane-2-carboxylic Acid Phenethyl Ester] | 2110 ± 50 | 56640 ± 9322 |
| CC[C@H](C)[C@H](NC(=O)OCc1ccccc1)C(=O)N[C@@H](CCC(=O)O)C(=O)N[C@H](C(=O)NN(CC(=O)O)C(=O)[C@@H]1O[C@H]1C(=O)OCc1ccccc1)[C@@H](C)O [27d (R,R), (2R,3R)-3-(N^2-(N-Benzyloxycarbonylisoleucylglutamylthreonyl)-N^1-carboxymethylhydrazinocarbonyl)oxirane-2-carboxylic Acid Benzyl Ester] | 3115 ± 125 | 13000 ± 980 |
| CCOC(=O)[C@H]1O[C@@H]1C(=O)N(CC(=O)O)NC(=O)[C@H](C)NC(=O)[C@@H](NC(=O)CCc1ccccc1)C(C)C [23c (S,S), (2S,3S)-3-(N^2-(3-Phenylpropanoylvalylalanyl)-N^1-carboxymethylhydrazinocarbonyl)oxirane-2-carboxylic Acid Ethyl Ester] | 1040 ± 80 | 32200 ± 14560 |
| CC(C)[C@H](NC(=O)CCc1ccccc1)C(=O)N[C@@H](C)C(=O)NN(CC(=O)O)C(=O)[C@H]1O[C@@H]1C(=O)NCc1ccccc1 [23g (S,S), (2S,3S)-2-(2-Benzylcarbamoyl)-3-(N^2-(3-phenylpropanoylvalylalanyl)-N^1-carboxymethylhydrazinocarbonyl)oxirane] | 1610 ± 5 | 65900 ± 9153 |
| CCOC(=O)[C@@H]1O[C@H]1C(=O)N(CC(=O)O)NC(=O)[C@@H](NC(=O)[C@H](CCC(=O)O)NC(=O)[C@H](CC(=O)O)NC(=O)OCc1ccccc1)C(C)C [25c (R,R), (2R,3R)-3-(N^2-(N-Benzyloxycarbonylaspartylglutamylvalyl)-N^1-carboxymethylhydrazinocarbonyl)oxirane-2-carboxylic Acid Ethyl Ester] | 464420 ± 186300 | 4320 ± 830 |
| CC(C)[C@H](NC(=O)CCc1ccccc1)C(=O)N[C@@H](C)C(=O)NN(CC(=O)O)C(=O)[C@H]1O[C@@H]1C(=O)NC(Cc1ccc(O)cc1)C(N)=O (stereo partly drawn) [23m, (2S,3S)-2-(2-Amido-phenyl(4-hydroxy)ethylcarbamoyl)-3-(N^2-(3-phenylpropanoylvalylalanyl)-N^1-carboxymethylhydrazinocarbonyl)oxirane] | 87 ± 4 | 3245 ± 2330 |
| CCOC(=O)[C@@H]1O[C@H]1C(=O)N(CC(=O)O)NC(=O)[C@@H](NC(=O)[C@H](CCC(=O)O)NC(=O)[C@@H](NC(=O)OCc1ccccc1)[C@@H](C)CC)[C@@H](C)O [27c (R,R), (2R,3R)-3-(N^2-(N-Benzyloxycarbonylisoleucylglutamylthreonyl)-N^1-carboxymethylhydrazinocarbonyl)oxirane-2-carboxylic Acid Ethyl Ester] | 2630 ± 365 | 13260 ± 3684 |

Other lines, results leading:

| k2 caspase-3 (caspase-3) [M⁻¹ s⁻¹] | k2 caspase-1 (caspase-1) [M⁻¹ s⁻¹] | Compound |
| --- | --- | --- |
| 470 ± 77 | 1040 ± 455 | (2R,3R)-2-(1-Amido-phenethylcarbamoyl)-3-(N^2-(N-benzyloxycarbonylaspartylglutamylvalyl)-N^1-carboxymethylhydrazinocarbonyl)oxirane [24l] |
| 3520 ± 600 | 43500 ± 2150 | CC(C)C[C@H](NC(=O)OCc1ccccc1)C(=O)N[C@@H](CCC(=O)O)C(=O)N[C@H](C(=O)NN(CC(=O)O)C(=O)[C@H]1O[C@@H]1C(=O)OCc1ccccc1)[C@@H](C)O [26d, (2S,3S)-3-(N^2-(N-Benzyloxycarbonylleucylglutamylthreonyl)-N^1-carboxymethylhydrazinocarbonyl)oxirane-2-carboxylic Acid Benzyl Ester] |
| 1097820 ± 94860 | 25420 ± 4013 | CC(C)[C@H](NC(=O)[C@H](CCC(=O)O)NC(=O)[C@H](CC(=O)O)NC(=O)OCc1ccccc1)C(=O)NN(CC(=O)O)C(=O)[C@H]1O[C@@H]1C(=O)NCc1ccccc1 [25g, (2S,3S)-2-(2-Benzylcarbamoyl)-3-(N^2-(N-benzyloxycarbonylaspartylglutamylvalyl)-N^1-carboxymethylhydrazinocarbonyl)oxirane] |
| 1915200 ± 209200 | 54690 ± 15913 | CC(C)[C@H](NC(=O)[C@H](CCC(=O)O)NC(=O)[C@H](CC(=O)O)NC(=O)OCc1ccccc1)C(=O)NN(CC(=O)O)C(=O)[C@H]1O[C@@H]1C(=O)OCc1ccccc1 [25d, (2S,3S)-3-(N^2-(N-Benzyloxycarbonylaspartylglutamylvalyl)-N^1-carboxymethylhydrazinocarbonyl)oxirane-2-carboxylic Acid Benzyl Ester] |
| 50500 ± 2075 | 58500 | CCOC(=O)[C@H]1O[C@@H]1C(=O)N(CC(=O)O)NC(=O)[C@@H](NC(=O)[C@H](CCC(=O)O)NC(=O)OCc1ccccc1)C(C)C [24c, (2S,3S)-3-(N^2-(N-Benzyloxycarbonylglutamylvalyl)-N^1-carboxymethylhydrazinocarbonyl)oxirane-2-carboxylic Acid Ethyl Ester] |
| 6475 ± 240 | 18140 ± 4085 | CC[C@H](C)[C@H](NC(=O)OCc1ccccc1)C(=O)N[C@@H](CCC(=O)O)C(=O)N[C@H](C(=O)NN(CC(=O)O)C(=O)[C@@H]1O[C@H]1C(=O)NCc1ccccc1)[C@@H](C)O [27g, (2R,3R)-2-(2-Benzylcarbamoyl)-3-(N^2-(N-benzyloxycarbonylisoleucylglutamylthreonyl)-N^1-carboxymethylhydrazinocarbonyl)oxirane] |
